Data as given in patent US20240041042A1, “1-(PYRIDYL)-5-AZINYLPYRAZOLE DERIVATIVES, AND THEIR USE FOR CONTROL OF UNDESIRED PLANT GROWTH” (Bayer Aktiengesellschaft, priority 2020, published 2024).
Read-outs that look alike come from different tables or passages of the source.

Assays:
Format in all cases: in vivo
[1] = test system: Polygonum convolvulus (POLCO); assay: Pre-emergence herbicidal action against POLCO
Method in brief: (§1)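 Dosages of 320 g/ha or less; pre-emergence; WP or EC in aqueous spray, 0.5% additive, 600 l/ha; greenhouse; visual % effect after ~3 wk relative to control pots.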

Lolium rigidum (LOLRI) = assay: Pre-emergence herbicidal action against LOLRI
Method in brief: as §1

[2] = test system: Matricaria inodora (MATIN); assay: Pre-emergence herbicidal action against MATIN
Method in brief: as §1

[3] = test system: Alopecurus myosuroides (ALOMY); assay: Post-emergence herbicidal action against ALOMY; settings: 80 g/ha, visual rating about 3 weeks after treatment vs untreated controls (100% = plants have died, 0% = like control plants)
Method in brief: (§2)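 Post-emergence greenhouse spray, one-leaf stage, 600 l/ha water plus 0.5% additive; WP or EC formulations; application rates 320 g/ha or lower. Visual % damage vs untreated controls at ~3 weeks.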

[4] = test system: Alopecurus myosuroides (ALOMY); assay: Pre-emergence herbicidal action against ALOMY; settings: scored visually after about 3 weeks, 100% = plants have died
Method in brief: as §1

[5] = test system: Amaranthus retroflexus (AMARE); assay: Pre-emergence herbicidal action against AMARE; settings: visual scoring after about 3 weeks vs untreated controls
Method in brief: as §1

[6] = test system: Amaranthus retroflexus (AMARE); assay: Post-emergence herbicidal action against AMARE; settings: 80 g/ha, visual rating about 3 weeks after treatment vs untreated controls (100% = plants have died, 0% = like control plants)
Method in brief: as §2

Viola tricolor (VIOTR) [7] = assay: Pre-emergence herbicidal action against VIOTR
Method in brief: as §1

[8] = test system: Verconica persica (VERPE); assay: Pre-emergence herbicidal action against VERPE
Method in brief: as §1

[9] = test system: Verconica persica (VERPE); assay: Post-emergence herbicidal action against VERPE
Method in brief: as §2

[10] = test system: Echinochloa crus-galli (ECHCG); assay: Pre-emergence herbicidal action against ECHCG
Method in brief: as §1

[11] = test system: Polygonum convolvulus (POLCO); assay: Post-emergence herbicidal action against POLCO
Method in brief: as §2

Setaria viridis (SETVI) [12] = assay: Pre-emergence herbicidal action against SETVI
Method in brief: as §1

Avena fatua (AVEFA) [13] = assay: Post-emergence herbicidal action against AVEFA; settings: visual rating about 3 weeks after treatment
Method in brief: as §2

Avena fatua (AVEFA) [14] = assay: Pre-emergence herbicidal action against AVEFA; settings: 320 g/ha, visual scoring after about 3 weeks vs untreated controls
Method in brief: as §1

Zea mays (ZEAMX) = settings: for Post-emergence action against ZEAMX in % (crop plant compatibility): 20 g/ha, effect in comparison to untreated controls; for Post-emergence action against ZEAMX in %: crop plant compatibility, 80 g/ha, effect vs untreated controls
Method in brief: (§3)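 Visual rating (% effect vs. untreated plants; 100% = plant death) made about 3 weeks after treatment. Plants had been sprayed at one-leaf stage, 2–3 weeks post-sowing, with aqueous WP/EC preparations containing 0.5% additive, 600 l/ha water volume; a, b, c mark dose levels.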

[15] = test system: Triticum aestivum (TRZAS); settings: crop plant compatibility, effect vs untreated controls
Method in brief: as §3

Oryza sativa (ORYSA) = settings: crop plant compatibility
Method in brief: as §3

[16] = test system: Echinochloa crus-galli (ECHCG); assay: Post-emergence herbicidal action against ECHCG
Method in brief: as §2

[17] = test system: Abutilon theophrasti (ABUTH); assay: Post-emergence herbicidal action against ABUTH; settings: 320 g/ha, visual rating about 3 weeks after treatment vs untreated controls (100% = plants have died, 0% = like control plants)
Method in brief: as §2

[18] = test system: Pharbitis purpurea (PHBPU); assay: Pre-emergence herbicidal action against PHBPU; settings: dosage 320 g/ha
Method in brief: as §1

[19] = test system: Pharbitis purpurea (PHBPU); assay: Post-emergence herbicidal action against PHBPU; settings: dosage 80 g/ha
Method in brief: as §2

Viola tricolor (VIOTR) [20] = assay: Post-emergence herbicidal action against VIOTR; settings: 80 g/ha
Method in brief: as §2

Setaria viridis (SETVI) [21] = assay: Post-emergence herbicidal action against SETVI; settings: dosage 80 g/ha
Method in brief: as §2

[22] = test system: Matricaria inodora (MATIN); assay: Post-emergence herbicidal action against MATIN; settings: dosage 80 g/ha
Method in brief: as §2

[23] = 20 g/ha, effect vs untreated controls

SMILES	Pre-emergence action against POLCO in % ([1]; dosage 80 g/ha)	Pre-emergence action against POLCO in % ([1]; dosage 320 g/ha)	Pre-emergence action against LOLRI in % (Lolium rigidum (LOLRI); dosage 320 g/ha)	Pre-emergence action against MATIN in % ([2]; dosage 320 g/ha)	Post-emergence action against ALOMY in % [3]	Pre-emergence action against ALOMY ([4]; 80 g/ha)	Pre-emergence action against ALOMY ([4]; 320 g/ha)	Pre-emergence action against AMARE in % ([5]; 80 g/ha)	Pre-emergence action against AMARE in % ([5]; 320 g/ha)	Post-emergence action against AMARE in % [6]	Pre-emergence action against VIOTR in % (Viola tricolor (VIOTR) [7]; 320 g/ha, Viola tricolor)	Pre-emergence action against VIOTR in % (Viola tricolor (VIOTR) [7]; dosage 80 g/ha)	Pre-emergence action against VERPE in % ([8]; dosage 320 g/ha)	Post-emergence action against VERPE in % ([9]; dosage 80 g/ha)	Pre-emergence action against ECHCG in % ([10]; dosage 80 g/ha)	Pre-emergence action against ECHCG in % ([10]; dosage 320 g/ha)	Pre-emergence action against SETVI in % (Setaria viridis (SETVI) [12]; dosage 80 g/ha)	Pre-emergence action against SETVI in % (Setaria viridis (SETVI) [12]; dosage 320 g/ha)	Post-emergence action against AVEFA in % (Avena fatua (AVEFA) [13]; 80 g/ha)	Pre-emergence action against AVEFA in % (Avena fatua (AVEFA) [14])	further results
CS(=O)(=O)NC(=O)COc1nn(-c2ncccc2F)c(-c2ccc(F)nc2)c1Br [Example I-44]	90%	90%	100%	90%	80%	100%	100%	80%	90%	80%	100%	100%	80%	80%	80%	100%	90%	100%	90%	90%	Pre-emergence action against LOLRI in % (Lolium rigidum (LOLRI); dosage 80 g/ha): 80%; Post-emergence action against POLCO in % ([11]; dosage 80 g/ha): 90%; Post-emergence action against ZEAMX in % (crop plant compatibility) (Zea mays (ZEAMX)): 0%; Post-emergence action against ZEAMX in % (Zea mays (ZEAMX)): 10%; Post-emergence action against TRZAS in % ([15]; 20 g/ha): 20%; Post-emergence action against ORYSA in % (Oryza sativa (ORYSA); [23]): 20%
O=C(O)COc1nn(-c2ncccc2C(F)(F)F)c(-c2cncc(F)c2)c1I [Example I-186]	–	80%	–	–	–	–	90%	–	90%	–	90%	80%	90%	–	–	80%	–	80%	–	80%	Post-emergence action against ECHCG in % ([16]; dosage 80 g/ha): 80%; Post-emergence action against ECHCG in % ([16]; dosage 320 g/ha): 90%; Post-emergence action against ABUTH in % [17]: 80%; Pre-emergence action against VERPE in % ([8]; dosage 80 g/ha): 90%; Post-emergence action against VERPE in % ([9]; 320 g/ha, VERPE): 80%; Pre-emergence action against PHBPU in % [18]: 90%; Post-emergence action against POLCO in % ([11]; dosage 320 g/ha): 80%; Post-emergence action against AVEFA in % (Avena fatua (AVEFA) [13]; 320 g/ha): 80%; Post-emergence action against ZEAMX in % (Zea mays (ZEAMX)): 20%; Post-emergence action against TRZAS in % ([15]; 80 g/ha): 10%; Post-emergence action against ORYSA in % (Oryza sativa (ORYSA); 80 g/ha, effect in comparison to untreated controls): 10%; Post-emergence action against ORYSA in % (Oryza sativa (ORYSA); 320 g/ha, effect in comparison to untreated controls): 20%
CCOC(=O)COc1nn(-c2ncccc2F)c(-c2ccc(F)nc2)c1Br [Example I-51]	80%	90%	90%	90%	90%	90%	100%	100%	100%	90%	100%	100%	100%	80%	80%	90%	90%	100%	90%	90%	Post-emergence action against ECHCG in % ([16]; dosage 80 g/ha): 90%; Post-emergence action against PHBPU in % [19]: 90%; Pre-emergence action against MATIN in % ([2]; dosage 80 g/ha): 90%; Post-emergence action against VIOTR in % (Viola tricolor (VIOTR) [20]): 80%; Pre-emergence action against VERPE in % ([8]; dosage 80 g/ha): 100%; Post-emergence action against SETVI in % (Setaria viridis (SETVI) [21]): 90%; Pre-emergence action against PHBPU in % [18]: 90%; Post-emergence action against MATIN in % [22]: 80%; Post-emergence action against ZEAMX in % (crop plant compatibility) (Zea mays (ZEAMX)): 20%; Post-emergence action against TRZAS in % ([15]; 20 g/ha): 20%; Post-emergence action against ORYSA in % (Oryza sativa (ORYSA); [23]): 20%
